Laboratory results: PMC9151520 (Archives of Toxicology, 2022)
“And” between values parts separate entries of the source, which are not always exact repeats. Equal values may be shown once. Read-outs that look alike come from different tables or passages of the source.

Legend:
[1] = tested on: p53 signaling (p53RE-bla HCT-116 cells)
p53RE-bla HCT-116 cells [2] = assay: cells; details: Homo sapiens
[3] = tested on: p53 signaling (p53RE-bla HCT-116 cells); details: for EC50: read-out: p53 activation EC50, RLM
p53RE-bla HCT-116 cells [4] = tested on: p53RE-bla HCT-116 cells
[5] = tested on: p53 signaling (p53RE-bla HCT-116 cells); assay: cells; assay type: cell-based; details: for EC50 / Emax: Homo sapiens
[6] = tested on: p53 signaling (p53RE-bla HCT-116 cells); assay: cells; assay type: cell-based; details: Homo sapiens; for EC50: HCT-116
[7] = tested on: p53 signaling (p53RE-bla HCT-116 cells); assay: cells; details: Homo sapiens; for Emax: HCT-116, read-out: efficacy
[8] = tested on: p53 signaling (p53RE-bla HCT-116 cells); assay: cells; assay type: cell-based; details: Homo sapiens; for EC50: HCT-116, 0.5 h
[9] = tested on: p53 signaling (p53RE-bla HCT-116 cells); assay: cells; details: Homo sapiens, HCT-116, read-out: p53 activation EC50, HLM
[10] = HCT-116, read-out: EC50, viability, primary screening
[11] = HCT-116, read-out: EC50, p53 activation, primary screening
[12] = HCT-116, read-out: Efficacy, p53 activation, primary screening
[13] = read-out: EC50, viability, primary screening
[14] = HCT-116, read-out: EC50, p53 activation, cherry pick confirmation
[15] = HCT-116, read-out: Efficacy, p53 activation, cherry pick confirmation
[16] = HCT-116, read-out: Viability EC50, cherry pick confirmation
[17] = HCT-116, read-out: p53 activation EC50, cherry pick confirmation
[18] = HCT-116, read-out: p53 activation EC50, primary screening
[19] = HCT-116, read-out: p53 activation efficacy, cherry pick confirmation
[20] = HCT-116, read-out: p53 activation efficacy, primary screening
[21] = HCT-116, read-out: p53 activation EC50, RLM

Oc1c(I)cc(I)cc1I [2,4,6-Triiodophenol]
EC50, p53 activation, cherry pick confirmation [1]: inactive
EC50, p53 activation, primary screening [1]: inactive
Efficacy, p53 activation, cherry pick confirmation [1]: inactive
Efficacy, p53 activation, primary screening [1]: inactive
EC50 (p53RE-bla HCT-116 cells [2]; [10]): 19 µM
EC50, p53 activation, cherry pick confirmation [3]: inactive
EC50, p53 activation, primary screening [3]: inactive
Efficacy, p53 activation, cherry pick confirmation [3]: inactive
Efficacy, p53 activation, primary screening [3]: inactive
EC50, viability, cherry pick confirmation (p53RE-bla HCT-116 cells [4]): inactive
EC50, viability, primary screening (p53RE-bla HCT-116 cells [4]): inactive
EC50, p53 activation, cherry pick confirmation [5]: inactive
Efficacy, p53 activation, cherry pick confirmation [5]: inactive
EC50 [5, 11]: 20.7 µM
Emax [5, 12]: 27.1%

CC(C)(c1cc(Br)c(O)c(Br)c1)c1cc(Br)c(O)c(Br)c1 [3,3',5,5'-Tetrabromobisphenol A]
EC50, p53 activation, cherry pick confirmation [1]: inactive
EC50, p53 activation, primary screening [1]: inactive
Efficacy, p53 activation, cherry pick confirmation [1]: inactive
Efficacy, p53 activation, primary screening [1]: inactive
EC50 (p53RE-bla HCT-116 cells [2]; [10]): 34.3 µM
EC50, p53 activation, cherry pick confirmation [3]: inactive
EC50, p53 activation, primary screening [3]: inactive
Efficacy, p53 activation, cherry pick confirmation [3]: inactive
Efficacy, p53 activation, primary screening [3]: inactive
EC50 (p53RE-bla HCT-116 cells [4]; [13]): 34.9 µM and 45.8 µM
EC50, p53 activation, cherry pick confirmation [5]: inactive
Efficacy, p53 activation, cherry pick confirmation [5]: inactive
EC50 [5, 11]: 30.1 µM
Emax [5, 12]: 91.5%

Oc1cc(Cl)c(Cl)c(Cl)c1 [3,4,5-Trichlorophenol]
EC50, p53 activation, cherry pick confirmation [1]: inactive
EC50, p53 activation, primary screening [1]: inactive
Efficacy, p53 activation, cherry pick confirmation [1]: inactive
Efficacy, p53 activation, primary screening [1]: inactive
EC50 (p53RE-bla HCT-116 cells [2]; HCT-116, read-out: EC50, viability, cherry pick confirmation): 27.4 µM
EC50, p53 activation, cherry pick confirmation [3]: inactive
EC50, p53 activation, primary screening [3]: inactive
Efficacy, p53 activation, cherry pick confirmation [3]: inactive
Efficacy, p53 activation, primary screening [3]: inactive
EC50, viability, cherry pick confirmation (p53RE-bla HCT-116 cells [4]): inactive
EC50, viability, primary screening (p53RE-bla HCT-116 cells [4]): inactive
Efficacy, viability, primary screening (p53RE-bla HCT-116 cells [4]): inactive
EC50 [5, 14]: 48.4 µM
EC50 [5, 11]: 40.3 µM
Emax [5, 15]: 40.3%
Emax [5, 12]: 25.7%

O=Nc1ccc(Nc2ccccc2)cc1 [4-Nitrosodiphenylamine]
p53 activation EC50, cherry pick confirmation [1]: inactive
p53 activation EC50, primary screening [1]: inactive
p53 activation efficacy, cherry pick confirmation [1]: inactive
p53 activation efficacy, primary screening [1]: inactive
EC50 (p53RE-bla HCT-116 cells [2]; [16]): 40.8 µM
p53 activation EC50, cherry pick confirmation [3]: inactive
p53 activation EC50, primary screening [3]: inactive
p53 activation efficacy, cherry pick confirmation [3]: inactive
p53 activation efficacy, primary screening [3]: inactive
Viability EC50, cherry pick confirmation (p53RE-bla HCT-116 cells [4]): inactive
Viability EC50, primary screening (p53RE-bla HCT-116 cells [4]): inactive
Viability efficacy, primary screening (p53RE-bla HCT-116 cells [4]): inactive
EC50 (p53RE-bla HCT-116 cells [4]; read-out: Viability EC50, cherry pick confirmation): 36.3 µM
EC50 [5, 17]: 27.6 µM
EC50 [5, 18]: 47.6 µM
Emax [5, 19]: 84.9%
Emax [5, 20]: 61.2%

Oc1ccc(C(c2ccc(O)cc2)(C(F)(F)F)C(F)(F)F)cc1 [Bisphenol AF]
EC50, p53 activation, cherry pick confirmation [1]: inactive
EC50, p53 activation, primary screening [1]: inactive
Efficacy, p53 activation, cherry pick confirmation [1]: inactive
Efficacy, p53 activation, primary screening [1]: inactive
EC50 (p53RE-bla HCT-116 cells [2]; [10]): 47.4 µM
EC50, p53 activation, cherry pick confirmation [3]: inactive
EC50, p53 activation, primary screening [3]: inactive
Efficacy, p53 activation, cherry pick confirmation [3]: inactive
Efficacy, p53 activation, primary screening [3]: inactive
EC50, viability, cherry pick confirmation (p53RE-bla HCT-116 cells [4]): inactive
EC50, viability, primary screening (p53RE-bla HCT-116 cells [4]): inactive
Efficacy, viability, cherry pick confirmation (p53RE-bla HCT-116 cells [4]): inactive
EC50 (p53RE-bla HCT-116 cells [4]; [13]): 47.6 µM
EC50 [5, 14]: 31.7 µM
EC50 [5, 11]: 28.9 µM
Emax [5, 15]: 55.4%
Emax [5, 12]: 33.6%

CC(C)C[C@H](NC(=O)[C@H](Cc1ccccc1)NC(=O)c1cnccn1)B(O)O [Bortezomib]
p53 activation EC50, cherry pick confirmation [1]: inactive
p53 activation EC50, primary screening [1]: inactive
p53 activation efficacy, cherry pick confirmation [1]: inactive
p53 activation efficacy, primary screening [1]: inactive
EC50 (p53RE-bla HCT-116 cells [2]; [16]): 0.397 µM
EC50 (p53RE-bla HCT-116 cells [2]; HCT-116, read-out: Viability EC50, primary screening): 0.428 µM
p53 activation EC50, cherry pick confirmation [3]: inactive
p53 activation EC50, primary screening [3]: inactive
p53 activation efficacy, cherry pick confirmation [3]: inactive
p53 activation efficacy, primary screening [3]: inactive
Viability EC50, cherry pick confirmation (p53RE-bla HCT-116 cells [4]): inactive
Viability EC50, primary screening (p53RE-bla HCT-116 cells [4]): inactive
EC50 [5, 17]: 0.101 µM
EC50 [5, 18]: 0.0122 µM
Emax [5, 19]: 134%
Emax [5, 20]: 104%

COP(N)(=O)SC (stereo not shown) [Methamidophos]
EC50 [6]: 9.77 µM
p53 activation EC50, HLM [1]: inactive
EC50 [3]: 13.8 µM
Viability EC50, HLM (p53RE-bla HCT-116 cells [4]): inactive
Viability EC50, No MS (p53RE-bla HCT-116 cells [4]): inactive
Viability EC50, RLM (p53RE-bla HCT-116 cells [4]): inactive
Viability Efficacy, HLM (p53RE-bla HCT-116 cells [4]): inactive
Viability Efficacy, No MS (p53RE-bla HCT-116 cells [4]): inactive
Viability Efficacy, RLM (p53RE-bla HCT-116 cells [4]): inactive
EC50 ([7]; HCT-116): 11.4 µM
Emax [7]: 48.9%
EC50 [7, 21]: 11.2 µM
EC50 [8]: 6.02 µM
p53 activation EC50, No MS [5]: inactive
p53 activation Efficacy, No MS [5]: inactive
EC50 [9]: 2.04 µM

CNC(=O)O/N=C(\SC)C(=O)N(C)C [Oxamyl]
EC50 [6]: 22.4 µM
p53 activation EC50, HLM [1]: inactive
EC50 [3]: 10.9 µM
Viability EC50, HLM (p53RE-bla HCT-116 cells [4]): inactive
Viability EC50, No MS (p53RE-bla HCT-116 cells [4]): inactive
Viability EC50, RLM (p53RE-bla HCT-116 cells [4]): inactive
Viability Efficacy, HLM (p53RE-bla HCT-116 cells [4]): inactive
Viability Efficacy, No MS (p53RE-bla HCT-116 cells [4]): inactive
Viability Efficacy, RLM (p53RE-bla HCT-116 cells [4]): inactive
EC50 ([7]; HCT-116): 14.2 µM
Emax [7]: 58.1%
EC50 [7, 21]: 14.1 µM
EC50 [8]: 14.4 µM
p53 activation EC50, No MS [5]: inactive
p53 activation Efficacy, No MS [5]: inactive
EC50 [9]: 2.96 µM

CCOP(=S)(OCC)O/N=C(\C#N)c1ccccc1 [Phoxim]
EC50 [6]: 5.3 µM
Emax ([6]; HCT-116, read-out: efficacy): 42.2%
p53 activation EC50, HLM [1]: inactive
EC50 [3]: 5.83 µM
Viability EC50, HLM (p53RE-bla HCT-116 cells [4]): inactive
Viability EC50, No MS (p53RE-bla HCT-116 cells [4]): inactive
Viability EC50, RLM (p53RE-bla HCT-116 cells [4]): inactive
Viability Efficacy, HLM (p53RE-bla HCT-116 cells [4]): inactive
Viability Efficacy, No MS (p53RE-bla HCT-116 cells [4]): inactive
Viability Efficacy, RLM (p53RE-bla HCT-116 cells [4]): inactive
EC50 ([7]; HCT-116): 4.42 µM
Emax [7]: 34.4%
EC50 [7, 21]: 3.04 µM
EC50 [8]: 5.35 µM
Emax ([8]; HCT-116, read-out: efficacy): 43.5%
p53 activation EC50, No MS [5]: inactive
p53 activation Efficacy, No MS [5]: inactive
EC50 [9]: 2.17 µM
